Like-named read-outs stand apart in the source and are kept apart here.
Legend:
[1] = Oral pharmacokinetic study in rats; format: in vivo; conditions: rat, brain, male SD rats, oral gavage, read-out: B/P (1 h)
Protocol: Drug preparation: 1% MC was added to the compound, ground, and shaken uniformly. Samples were collected at 5 min, 15 min, 30 min, 1 h, 2 h, 4 h, and 8 h post-dose, followed by analysis using liquid chromatography-tandem mass spectrometry (LC-MS/MS).

[2] = molecular target: LRRK2 wt (Homo sapiens, UniProt Q5S007); assay: Kinase activity inhibition assay (ADP-Glo), LRRK2 wt; format: biochemical; conditions: read-out: LRRK2 wt inhibition rate at 100 nM; compound at 100 nM
Protocol: The kinase activity inhibition assay was performed by ICE Bioscience (Beijing) using ADP-Glo and HTRF methods.

Chain of LRRK2 wt (Q5S007 whole entry): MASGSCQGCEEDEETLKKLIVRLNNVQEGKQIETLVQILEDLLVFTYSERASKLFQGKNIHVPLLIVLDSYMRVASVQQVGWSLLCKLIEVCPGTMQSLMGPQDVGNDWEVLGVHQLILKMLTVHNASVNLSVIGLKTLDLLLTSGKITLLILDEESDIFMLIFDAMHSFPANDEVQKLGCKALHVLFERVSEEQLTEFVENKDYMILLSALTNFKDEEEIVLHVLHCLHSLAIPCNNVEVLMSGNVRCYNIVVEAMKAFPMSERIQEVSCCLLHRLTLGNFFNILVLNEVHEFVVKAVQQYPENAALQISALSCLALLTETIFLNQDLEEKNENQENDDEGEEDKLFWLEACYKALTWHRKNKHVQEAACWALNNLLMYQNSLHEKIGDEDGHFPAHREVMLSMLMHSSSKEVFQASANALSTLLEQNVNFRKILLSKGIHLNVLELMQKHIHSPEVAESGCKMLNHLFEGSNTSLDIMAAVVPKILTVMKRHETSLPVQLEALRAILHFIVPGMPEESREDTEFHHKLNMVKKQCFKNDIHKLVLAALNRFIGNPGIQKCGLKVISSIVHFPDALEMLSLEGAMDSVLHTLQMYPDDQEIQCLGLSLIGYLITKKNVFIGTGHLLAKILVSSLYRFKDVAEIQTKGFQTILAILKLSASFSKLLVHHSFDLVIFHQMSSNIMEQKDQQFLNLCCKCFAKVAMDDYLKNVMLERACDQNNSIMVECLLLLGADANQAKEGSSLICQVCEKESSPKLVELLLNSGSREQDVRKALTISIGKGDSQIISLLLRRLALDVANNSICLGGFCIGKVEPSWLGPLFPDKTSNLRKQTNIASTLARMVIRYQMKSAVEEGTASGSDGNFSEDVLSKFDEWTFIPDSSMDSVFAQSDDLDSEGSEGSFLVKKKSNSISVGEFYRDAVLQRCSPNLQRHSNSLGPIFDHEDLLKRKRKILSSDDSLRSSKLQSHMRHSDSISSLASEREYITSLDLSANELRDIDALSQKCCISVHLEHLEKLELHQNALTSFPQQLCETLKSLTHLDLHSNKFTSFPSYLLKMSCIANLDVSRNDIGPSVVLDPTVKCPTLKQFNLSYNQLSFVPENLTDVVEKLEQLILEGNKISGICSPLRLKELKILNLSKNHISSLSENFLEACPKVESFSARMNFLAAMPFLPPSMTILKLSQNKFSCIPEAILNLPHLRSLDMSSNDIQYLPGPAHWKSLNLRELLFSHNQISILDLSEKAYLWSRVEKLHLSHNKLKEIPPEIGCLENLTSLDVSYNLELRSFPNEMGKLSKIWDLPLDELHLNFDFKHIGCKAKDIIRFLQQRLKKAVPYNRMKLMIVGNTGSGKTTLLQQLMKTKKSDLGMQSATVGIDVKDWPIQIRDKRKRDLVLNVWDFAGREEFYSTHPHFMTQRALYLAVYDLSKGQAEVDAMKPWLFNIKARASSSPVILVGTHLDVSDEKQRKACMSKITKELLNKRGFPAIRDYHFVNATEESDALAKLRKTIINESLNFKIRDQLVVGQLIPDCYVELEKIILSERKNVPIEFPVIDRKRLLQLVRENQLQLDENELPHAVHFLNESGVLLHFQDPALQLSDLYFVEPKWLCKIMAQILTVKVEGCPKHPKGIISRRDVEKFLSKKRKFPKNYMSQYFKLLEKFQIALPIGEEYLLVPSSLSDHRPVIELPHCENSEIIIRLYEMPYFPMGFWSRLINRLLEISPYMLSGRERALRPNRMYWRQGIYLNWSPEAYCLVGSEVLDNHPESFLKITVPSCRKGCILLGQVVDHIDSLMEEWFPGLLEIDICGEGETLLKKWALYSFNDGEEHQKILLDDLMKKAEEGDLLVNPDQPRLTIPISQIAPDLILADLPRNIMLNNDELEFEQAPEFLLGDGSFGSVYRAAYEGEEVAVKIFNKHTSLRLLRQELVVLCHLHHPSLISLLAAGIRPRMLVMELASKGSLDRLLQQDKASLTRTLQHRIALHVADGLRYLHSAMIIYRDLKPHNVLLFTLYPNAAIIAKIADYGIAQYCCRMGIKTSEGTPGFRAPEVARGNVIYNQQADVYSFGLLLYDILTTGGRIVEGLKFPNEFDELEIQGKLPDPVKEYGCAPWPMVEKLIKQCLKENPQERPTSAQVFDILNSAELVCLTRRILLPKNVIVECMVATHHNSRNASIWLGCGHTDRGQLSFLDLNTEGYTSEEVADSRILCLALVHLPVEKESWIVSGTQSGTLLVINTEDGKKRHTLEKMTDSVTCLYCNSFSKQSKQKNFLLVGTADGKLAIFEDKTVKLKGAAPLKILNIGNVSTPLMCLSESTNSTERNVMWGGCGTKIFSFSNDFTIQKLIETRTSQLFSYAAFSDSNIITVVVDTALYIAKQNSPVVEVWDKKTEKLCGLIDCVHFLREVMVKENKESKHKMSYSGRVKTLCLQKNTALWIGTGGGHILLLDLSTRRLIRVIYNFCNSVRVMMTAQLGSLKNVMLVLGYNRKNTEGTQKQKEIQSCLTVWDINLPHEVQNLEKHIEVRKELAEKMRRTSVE

## Cc1nn2cc1Nc1ncc(C(F)(F)F)c(n1)NCCCNC(=O)C2(C)C [Example T-1, (E)-3^3,4,4-Trimethyl-15-(trifluoromethyl)-3^1H-2,6,10-triaza-1(2,4)-pyrimidina-3(4,1)-pyrazolacyclodecan-5-one]
[1]; 3 mg/kg, 3 mpk
  Kp at 1 h: 0.13

## Cc1nn2cc1Nc1ncc(C(F)(F)F)c(n1)NC1CCCC(C1)NC(=O)C2(C)C (stereo not drawn) [Example T-42, (5^3R,E)-1^3,8,8-Trimethyl-3^5-(trifluoromethyl)-1^1H-2,4,6-triaza-3(2,4)-pyrimidina-1(4,1)-pyrazola-5(1,3)-cyclohexacyclooctan-7-one]
[2]
  inhibition at 0.1 µM: 42.1%

## Cc1nn2cc1Nc1ncc3c(Cl)cc(n3n1)CCCNC(=O)C2(C)C [Example T-25, (1^1Z,3^4E)-1^5-Chloro-3^3,4,4-trimethyl-3^1H-2,6-diaza-1(2,7)-pyrrolo[2,1-f][1,2,4]triazine-3(4,1)-pyrazolacyclononan-5-one]
[1]; 5 mg/kg, 5 mpk
  Kp at 1 h: 0.58
